These results are taken from patent publication US10238713B2, “Cyclic tetrapeptides and therapeutic applications thereof” (LODZ UNIVERSITY OF TECHNOLOGY, priority 2010, dated 2019).

Non-standard residues stand in square brackets, D forms with d. Residues, ends and D or L forms follow the SMILES beside them. β3hF = N[C@H](CC(=O)O)Cc1ccccc1

Series [1] concerns human peripheral mononuclear blood cells (PBMC). Briefly: Cytotoxic test on human blood mononuclear cells (24 h, colorimetric). The conditions noted are these: at 40 μg/ml, FIG. 5.
Protocol: For evaluation of toxicity of the compound of formula I-A, human peripheral mononuclear blood cells (PBMC) were chosen. This fraction consists of approximately 80% lymphocytes and 20% monocytes. As a reference compound, cyclolinopeptide (CLA) was selected since the compound of formula I-A shares a part of the sequence of CLA.
After centrifugation at 1200×g for 20 min, the mononuclear cells from the interphase were harvested and washed 3 times with PBS. The cells were re-suspended in a standard culture medium consisting of RPMI-1640 medium, L-glutamine, sodium pyruvate, 2-mercaptoethanol, 100 μg/ml each of streptomycin and penicillin, and 10% fetal calf serum. The cells were distributed to in 96-well flat-bottom culture plates at density of 2×10^5/100 μl. The compounds (formula I-A and CLA) were initially dissolved in DMSO (5 mg/500 μl) and subsequently in the culture medium. DMSO, appropriately diluted with the culture medium, was used as a control. After 24 h incubation in a cell culture incubator, cell viability was determined by a colorimetric method (Hansen et al., J Immunol Methods, 1989, 119, 203-210).
The next series relates to splenocytes. Put plainly: Toxicity test on splenocytes (24 h, MTT). Format: cell-based, mouse. The note with it: 100 μg/ml (printed 100 μg/m for I-C). How it is done:
Cell survival was determined by MTT colorimetric method. The results were presented as mean optical density (OD) at 550 nm from 4 wells. The viability of cells in respective compound concentrations was compared to appropriate DMSO control groups (100% survival), corresponding to respective compound concentrations.

Series [2] concerns mouse splenocyte cultures, humoral immune response to SRBC. Briefly: Secondary humoral immune response in vitro to SRBC (AFC number). Type of series: cell-based. How it is done:
Mice were sensitized intraperitoneally with 0.2 ml of 5% (v/v) SRBC suspension. After four days spleens from these mice were isolated and single cell suspensions prepared by homogenization in PBS solution. After washing the cells in PBS by centrifugation, the cells were re-suspended in the culture medium at a density of 5×10^6 cells/ml. The cells were subsequently distributed to 24-well culture plates in 1 ml aliquots and 0.05 ml of 0.005% SRBC was added as the antigen to each well. The compounds were added to the cultures at the beginning of the four-day incubation period at concentration ranges of 1-100 μg/ml. The number of antibody-forming cells (AFC) in the cultures was determined using a method of local hemolysis in agar gel according to Mishell et al., J Exp Med, 1967, 126, 423-442.

Series [3] deals with concanavalin A-induced mouse splenocyte proliferation. Briefly: Proliferative response of splenocytes to concanavalin A (MTT). Format: cell-based. The note with it: 50-100 μg/ml. As to the method: Spleens were pressed against a plastic screen into 0.83% NH4Cl solution to lyse erythrocytes (5 min incubation at room temperature). The cells were then washed twice with Hanks' medium, passed through glass wool column to remove debris, and re-suspended in the culture medium, referred to below as the “culture medium”, consisting of RPMI-1640, supplemented with 10% of fetal calf serum, L-glutamine, sodium pyruvate, 2-mercaptoethanol, streptomycin and penicillin (100 μg/ml). The cells were then distributed into 96-well flat-bottom tissue culture plates (Nunc) at a density of 2×10^5 cells/100 μl/well. Con A (2.5 μg/ml) was added to induce cell proliferation. The compounds were added to the cultures at doses of 1-100 μg/ml. After a three-day incubation, cell proliferation was determined using the colorimetric MTT method (Hansen M B, J Immunol Methods, 1989, 119, 203-210). The results were presented as the mean optical density (OD) at 550 nm ±SE from quadriplicate determinations (wells).

For `CC[C@H](C)[C@@H]1NC(=O)[C@H](CC(C)C)NC(=O)[C@H](Cc2ccccc2)NC(=O)[C@H](Cc2ccccc2)NC(=O)[C@@H]2CCCN2C(=O)[C@@H]2CCCN2C(=O)[C@H](C(C)C)NC(=O)[C@H](CC(C)C)NC(=O)[C@H]([C@@H](C)CC)NC1=O` [CLA, Cyclolinopeptide A] (cyclo(FFLIILVPP)), the “cytotoxic effect on PBMC” value in series [1] was “statistically significant cytotoxic effect”.

Compound `O=C1C[C@H](Cc2ccccc2)NC(=O)[C@@H]2CCCN2C(=O)[C@@H]2CCCN2C(=O)C[C@H](Cc2ccccc2)N1` [I-C] (cyclo(PP[β3hF][β3hF])) had a toxicity to splenocytes in the series with splenocytes of 70%. Further, the “suppression of in vitro humoral immune response to SRBC” value in series [2] (10 μg/m as printed) was 33%; in series [2] (100 μg/m as printed), 80%. Further, the “effect on concanavalin A-induced mouse splenocyte proliferation” value in series [3] is listed as “strong inhibitory effect”.
